ChEMBL document CHEMBL1201862, “PubChem BioAssay data set” (2004)
Blank lines part the entries; values can stand above or below the compound they belong to. Calls of active or inactive are those of the source.

Tests used:
[1] = test system: P388/ADR; assay: cells; format: functional; settings: Mus musculus
[2] = test system: SN12K1; assay: cells; format: functional; settings: Homo sapiens
[3] = test system: P388; assay: cells; format: functional; settings: Mus musculus
[4] = molecular target: T1, Small ubiquitin-related modifier 1 (Homo sapiens, UniProt P63165); assay: SUMO1 protein interaction blockers, potency – biochemical, fluorescence polarization, uHTS hits, dose response (AID 624382); format: functional; settings: read-out: IC50_Mean
T1 sequence (P63165 whole entry): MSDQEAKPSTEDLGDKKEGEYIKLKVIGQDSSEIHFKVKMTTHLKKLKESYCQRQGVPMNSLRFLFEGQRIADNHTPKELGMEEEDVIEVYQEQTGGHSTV

[5] = molecular target: T1, Small ubiquitin-related modifier 1; assay: SUMO1 protein-protein binding blockers, potency – biochemical, FRET, dose response (AID 624383); format: functional; settings: read-out: IC50_Mean
[6] = molecular target: T2, Rac GTPase-activating protein 1 (Homo sapiens, UniProt Q9H0H5); assay: blockers of MgcRacGAP-driven Rac1 GTP hydrolysis – biochemical, ADP Hunter fluorescence, primary and confirmatory, confirmation (AID 624330); format: functional
T2 sequence (Q9H0H5 whole entry): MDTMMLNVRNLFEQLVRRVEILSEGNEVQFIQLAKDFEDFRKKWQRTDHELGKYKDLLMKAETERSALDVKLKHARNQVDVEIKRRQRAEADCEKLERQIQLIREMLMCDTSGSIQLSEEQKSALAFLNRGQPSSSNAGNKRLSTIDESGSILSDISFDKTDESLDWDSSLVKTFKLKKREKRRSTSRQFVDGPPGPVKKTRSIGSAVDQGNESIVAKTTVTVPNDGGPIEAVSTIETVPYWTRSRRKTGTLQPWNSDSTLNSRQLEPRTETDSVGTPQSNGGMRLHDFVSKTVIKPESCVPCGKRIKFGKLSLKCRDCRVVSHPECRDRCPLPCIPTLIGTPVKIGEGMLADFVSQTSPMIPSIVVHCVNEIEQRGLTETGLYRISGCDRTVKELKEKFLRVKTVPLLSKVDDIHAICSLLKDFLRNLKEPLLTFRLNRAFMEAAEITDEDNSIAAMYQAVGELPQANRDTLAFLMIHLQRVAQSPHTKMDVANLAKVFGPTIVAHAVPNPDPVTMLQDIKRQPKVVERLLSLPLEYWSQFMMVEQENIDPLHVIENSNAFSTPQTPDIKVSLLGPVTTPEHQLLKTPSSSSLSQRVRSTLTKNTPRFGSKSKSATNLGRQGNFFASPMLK

[7] = molecular target: T3, Aryl hydrocarbon receptor (Homo sapiens, UniProt P35869); settings: Potency;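 further: confirmatory quantitative high-throughput screen measuring activation of the AhR signaling pathway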
T3 sequence (P35869 whole entry): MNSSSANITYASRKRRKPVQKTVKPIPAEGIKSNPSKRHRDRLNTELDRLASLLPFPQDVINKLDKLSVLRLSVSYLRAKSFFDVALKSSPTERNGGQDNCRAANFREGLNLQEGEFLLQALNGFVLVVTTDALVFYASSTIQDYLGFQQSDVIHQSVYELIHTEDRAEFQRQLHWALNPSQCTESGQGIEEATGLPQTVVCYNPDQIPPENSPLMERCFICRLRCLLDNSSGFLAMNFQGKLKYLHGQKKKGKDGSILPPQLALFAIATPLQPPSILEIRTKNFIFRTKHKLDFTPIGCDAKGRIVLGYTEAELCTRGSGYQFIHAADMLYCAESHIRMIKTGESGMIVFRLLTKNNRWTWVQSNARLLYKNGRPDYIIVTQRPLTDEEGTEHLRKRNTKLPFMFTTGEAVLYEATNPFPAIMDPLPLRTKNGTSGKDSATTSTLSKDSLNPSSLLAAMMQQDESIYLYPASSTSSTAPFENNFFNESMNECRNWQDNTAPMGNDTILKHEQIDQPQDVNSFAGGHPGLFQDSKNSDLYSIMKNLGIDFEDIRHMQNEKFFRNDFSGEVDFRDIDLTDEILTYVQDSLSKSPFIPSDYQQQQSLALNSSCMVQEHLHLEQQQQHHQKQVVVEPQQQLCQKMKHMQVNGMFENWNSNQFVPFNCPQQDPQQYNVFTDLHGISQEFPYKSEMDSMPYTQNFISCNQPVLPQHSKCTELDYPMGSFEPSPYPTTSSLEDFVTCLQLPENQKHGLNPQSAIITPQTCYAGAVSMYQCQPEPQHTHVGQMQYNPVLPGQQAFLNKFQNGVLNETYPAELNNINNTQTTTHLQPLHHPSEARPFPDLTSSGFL

[8] = molecular target: Mu-type opioid receptor (Homo sapiens, UniProt P35372); format: functional, cell-based;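 further: U2OS cells with beta-arrestin recruitment to OPRM1 by beta-gal complementation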
Sequence of Mu-type opioid receptor (P35372 whole entry): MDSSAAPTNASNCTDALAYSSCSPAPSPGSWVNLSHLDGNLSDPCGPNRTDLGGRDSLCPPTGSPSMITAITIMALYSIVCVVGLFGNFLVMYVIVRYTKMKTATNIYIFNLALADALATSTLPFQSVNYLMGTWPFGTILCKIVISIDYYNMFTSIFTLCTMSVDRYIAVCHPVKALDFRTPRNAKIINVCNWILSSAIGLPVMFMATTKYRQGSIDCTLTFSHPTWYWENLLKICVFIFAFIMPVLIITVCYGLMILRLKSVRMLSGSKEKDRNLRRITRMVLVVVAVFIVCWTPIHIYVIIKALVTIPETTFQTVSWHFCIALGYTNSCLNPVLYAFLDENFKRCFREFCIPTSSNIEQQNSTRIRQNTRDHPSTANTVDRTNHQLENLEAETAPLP

[9] = molecular target: 5-hydroxytryptamine receptor 2A (Mus musculus, UniProt P35363); format: functional, cell-based;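 further: CHO-K1 cells with tagged receptor and beta-arrestin; agonist potency measured as compound-induced activation of the receptor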
Sequence of 5-hydroxytryptamine receptor 2A (P35363 whole entry, the tested form may be a part): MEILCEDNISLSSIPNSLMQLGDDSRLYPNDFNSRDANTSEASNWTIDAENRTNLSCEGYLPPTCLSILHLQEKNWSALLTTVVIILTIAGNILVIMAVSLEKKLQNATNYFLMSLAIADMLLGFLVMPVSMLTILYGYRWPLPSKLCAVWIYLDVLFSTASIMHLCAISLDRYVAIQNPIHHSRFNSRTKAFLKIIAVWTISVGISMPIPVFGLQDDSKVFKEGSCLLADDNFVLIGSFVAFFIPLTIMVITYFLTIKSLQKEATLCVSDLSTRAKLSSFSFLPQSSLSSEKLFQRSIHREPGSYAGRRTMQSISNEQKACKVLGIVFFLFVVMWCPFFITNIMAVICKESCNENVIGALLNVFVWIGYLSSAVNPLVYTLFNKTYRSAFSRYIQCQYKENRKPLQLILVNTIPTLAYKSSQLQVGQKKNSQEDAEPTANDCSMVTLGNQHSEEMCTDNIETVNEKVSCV

[10] = molecular target: Hepatocyte nuclear factor 4-alpha (Homo sapiens, UniProt P41235); format: functional, cell-based;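 further: biochemical luminescence-based dose-response counterscreen measuring inhibition of HNF4 dimerization, run alongside a screen for blockers of ABHD5–perilipin-5 interaction; split luciferase complementation of HNF4 fusion proteins in cell lysate measuring dimerization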
Sequence of Hepatocyte nuclear factor 4-alpha (P41235 whole entry, the tested form may be a part): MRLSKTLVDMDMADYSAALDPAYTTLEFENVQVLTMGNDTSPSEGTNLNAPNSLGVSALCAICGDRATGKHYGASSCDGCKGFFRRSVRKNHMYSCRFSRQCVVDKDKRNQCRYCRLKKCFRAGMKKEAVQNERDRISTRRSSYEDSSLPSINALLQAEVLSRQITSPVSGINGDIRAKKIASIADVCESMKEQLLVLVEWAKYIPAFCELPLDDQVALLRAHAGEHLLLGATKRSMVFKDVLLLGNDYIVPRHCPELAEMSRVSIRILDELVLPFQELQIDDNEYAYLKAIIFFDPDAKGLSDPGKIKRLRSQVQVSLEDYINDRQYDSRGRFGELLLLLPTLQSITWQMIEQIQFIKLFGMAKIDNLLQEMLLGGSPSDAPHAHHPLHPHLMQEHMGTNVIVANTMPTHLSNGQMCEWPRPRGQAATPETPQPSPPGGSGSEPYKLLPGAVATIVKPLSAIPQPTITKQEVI

[11] = molecular target: T4, Sentrin-specific protease 1 (Homo sapiens, UniProt Q9P0U3); assay: SENP1 catalytic domain blockers, concentration series – biochemical, kinetic FRET, dose response (AID 651697); format: functional; settings: read-out: IC50_Mean
T4 sequence (Q9P0U3 whole entry, the tested form may be a part): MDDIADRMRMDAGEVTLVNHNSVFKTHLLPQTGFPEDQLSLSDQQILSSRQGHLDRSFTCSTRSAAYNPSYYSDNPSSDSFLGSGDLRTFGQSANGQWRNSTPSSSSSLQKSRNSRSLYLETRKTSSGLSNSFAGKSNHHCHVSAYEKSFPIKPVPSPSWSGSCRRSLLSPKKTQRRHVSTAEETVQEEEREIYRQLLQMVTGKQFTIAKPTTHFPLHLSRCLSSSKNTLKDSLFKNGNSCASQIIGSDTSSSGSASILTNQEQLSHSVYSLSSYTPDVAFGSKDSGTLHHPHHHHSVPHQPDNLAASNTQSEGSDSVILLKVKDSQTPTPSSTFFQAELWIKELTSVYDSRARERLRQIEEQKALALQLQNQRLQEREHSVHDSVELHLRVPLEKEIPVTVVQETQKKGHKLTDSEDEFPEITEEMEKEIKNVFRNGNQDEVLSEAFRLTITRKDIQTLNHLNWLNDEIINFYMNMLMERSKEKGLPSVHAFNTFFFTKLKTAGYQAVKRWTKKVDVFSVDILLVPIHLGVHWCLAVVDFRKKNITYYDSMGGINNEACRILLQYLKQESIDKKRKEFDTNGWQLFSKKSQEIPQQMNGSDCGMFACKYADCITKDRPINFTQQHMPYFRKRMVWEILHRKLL

[12] = molecular target: T5, Fatty acid synthase (Homo sapiens, UniProt P49327); assay: inhibition of human FAS-TE enzyme activity – biochemical, endpoint fluorescence intensity, uHTS hits, dose response (AID 624327); format: functional;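 further: fluorescence from hydrolysis of an O-methyl fluorescein acyl ester substrate by the enzyme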
T5 sequence (P49327 whole entry, the tested form may be a part): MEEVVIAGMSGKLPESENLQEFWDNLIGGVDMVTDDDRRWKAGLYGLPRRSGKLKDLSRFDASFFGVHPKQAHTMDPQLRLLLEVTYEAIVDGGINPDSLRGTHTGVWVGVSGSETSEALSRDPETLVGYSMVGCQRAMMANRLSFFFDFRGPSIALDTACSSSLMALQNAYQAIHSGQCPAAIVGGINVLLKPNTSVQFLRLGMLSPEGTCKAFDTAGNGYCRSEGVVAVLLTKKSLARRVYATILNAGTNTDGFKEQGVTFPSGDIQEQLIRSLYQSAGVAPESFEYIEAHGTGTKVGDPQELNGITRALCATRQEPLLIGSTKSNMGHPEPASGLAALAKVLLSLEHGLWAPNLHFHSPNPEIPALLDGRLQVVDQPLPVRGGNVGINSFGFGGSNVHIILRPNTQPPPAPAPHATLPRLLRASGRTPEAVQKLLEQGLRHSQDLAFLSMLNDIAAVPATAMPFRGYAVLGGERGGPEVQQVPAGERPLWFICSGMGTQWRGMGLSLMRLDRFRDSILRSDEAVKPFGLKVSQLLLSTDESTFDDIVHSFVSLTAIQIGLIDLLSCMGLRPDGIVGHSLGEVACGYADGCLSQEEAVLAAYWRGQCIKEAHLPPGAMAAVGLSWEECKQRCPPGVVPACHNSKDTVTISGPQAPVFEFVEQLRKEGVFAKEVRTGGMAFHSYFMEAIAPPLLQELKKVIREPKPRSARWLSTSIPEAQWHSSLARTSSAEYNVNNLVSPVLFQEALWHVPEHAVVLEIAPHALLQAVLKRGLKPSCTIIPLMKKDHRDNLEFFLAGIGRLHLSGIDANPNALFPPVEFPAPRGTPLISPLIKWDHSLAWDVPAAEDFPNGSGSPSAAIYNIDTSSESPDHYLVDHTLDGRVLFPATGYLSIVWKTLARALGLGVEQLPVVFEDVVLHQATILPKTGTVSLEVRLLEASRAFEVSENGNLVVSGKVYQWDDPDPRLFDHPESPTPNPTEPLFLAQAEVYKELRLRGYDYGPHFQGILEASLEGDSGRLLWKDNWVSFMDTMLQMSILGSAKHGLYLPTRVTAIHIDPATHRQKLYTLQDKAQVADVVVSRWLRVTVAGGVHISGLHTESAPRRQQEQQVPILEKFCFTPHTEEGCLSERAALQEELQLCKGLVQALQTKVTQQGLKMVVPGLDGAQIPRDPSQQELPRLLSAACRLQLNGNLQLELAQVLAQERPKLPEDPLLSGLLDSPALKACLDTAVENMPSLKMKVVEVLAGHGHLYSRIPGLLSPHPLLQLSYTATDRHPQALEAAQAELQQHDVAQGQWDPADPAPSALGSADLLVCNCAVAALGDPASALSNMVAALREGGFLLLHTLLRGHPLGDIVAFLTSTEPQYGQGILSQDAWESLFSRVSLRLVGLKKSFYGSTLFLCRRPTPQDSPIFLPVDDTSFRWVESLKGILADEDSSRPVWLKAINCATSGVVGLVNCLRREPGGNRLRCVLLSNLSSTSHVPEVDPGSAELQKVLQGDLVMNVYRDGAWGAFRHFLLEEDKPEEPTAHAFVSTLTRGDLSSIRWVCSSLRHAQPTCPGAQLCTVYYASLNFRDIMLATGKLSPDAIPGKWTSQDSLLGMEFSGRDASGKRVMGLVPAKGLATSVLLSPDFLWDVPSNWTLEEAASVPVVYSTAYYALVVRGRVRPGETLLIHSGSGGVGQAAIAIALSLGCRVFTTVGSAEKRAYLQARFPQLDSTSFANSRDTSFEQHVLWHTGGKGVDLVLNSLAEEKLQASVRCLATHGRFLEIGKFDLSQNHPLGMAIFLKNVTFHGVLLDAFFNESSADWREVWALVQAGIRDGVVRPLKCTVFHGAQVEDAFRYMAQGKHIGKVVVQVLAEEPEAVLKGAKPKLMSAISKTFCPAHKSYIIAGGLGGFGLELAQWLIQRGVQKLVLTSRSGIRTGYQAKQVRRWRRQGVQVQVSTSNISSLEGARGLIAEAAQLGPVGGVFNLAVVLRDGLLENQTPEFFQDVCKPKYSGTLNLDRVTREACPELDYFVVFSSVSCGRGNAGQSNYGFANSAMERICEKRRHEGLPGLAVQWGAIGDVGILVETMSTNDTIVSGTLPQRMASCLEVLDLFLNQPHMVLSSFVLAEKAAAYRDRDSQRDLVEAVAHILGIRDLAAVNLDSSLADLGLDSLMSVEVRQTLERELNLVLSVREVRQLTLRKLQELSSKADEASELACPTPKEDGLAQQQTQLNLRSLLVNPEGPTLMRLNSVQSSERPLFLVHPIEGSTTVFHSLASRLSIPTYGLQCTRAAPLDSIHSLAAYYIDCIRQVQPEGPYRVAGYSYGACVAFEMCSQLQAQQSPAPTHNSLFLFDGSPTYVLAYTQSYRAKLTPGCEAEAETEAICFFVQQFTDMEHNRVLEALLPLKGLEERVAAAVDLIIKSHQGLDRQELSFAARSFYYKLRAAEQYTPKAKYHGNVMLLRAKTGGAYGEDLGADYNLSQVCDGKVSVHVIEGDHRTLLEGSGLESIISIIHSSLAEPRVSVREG

[13] = molecular target: T4, Sentrin-specific protease 1; assay: Dose response confirmation of small molecule inhibitors of the catalytic domain of the SUMO protease, SENP1 in a FRET assay.; format: functional; settings: read-out: IC50_Mean
[14] = molecular target: T5, Fatty acid synthase; assay: inhibition of human FAS-TE enzyme activity – biochemical, kinetic fluorescence intensity, dose response (AID 624326); format: functional;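 further: rate of fluorescence rise from hydrolysis of a fluorogenic O-methyl fluorescein ester substrate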
[15] = molecular target: T6, Corticotropin-releasing factor receptor 2/Corticotropin-releasing factor-binding protein (Homo sapiens, UniProt P24387+Q13324); assay: Dose Response confirmation of uHTS hits for small molecule antagonists of the CRF-binding protein and CRF-R2 receptor complex.; format: functional; settings: read-out: IC50_Mean
T6 sequence (Q13324 whole entry): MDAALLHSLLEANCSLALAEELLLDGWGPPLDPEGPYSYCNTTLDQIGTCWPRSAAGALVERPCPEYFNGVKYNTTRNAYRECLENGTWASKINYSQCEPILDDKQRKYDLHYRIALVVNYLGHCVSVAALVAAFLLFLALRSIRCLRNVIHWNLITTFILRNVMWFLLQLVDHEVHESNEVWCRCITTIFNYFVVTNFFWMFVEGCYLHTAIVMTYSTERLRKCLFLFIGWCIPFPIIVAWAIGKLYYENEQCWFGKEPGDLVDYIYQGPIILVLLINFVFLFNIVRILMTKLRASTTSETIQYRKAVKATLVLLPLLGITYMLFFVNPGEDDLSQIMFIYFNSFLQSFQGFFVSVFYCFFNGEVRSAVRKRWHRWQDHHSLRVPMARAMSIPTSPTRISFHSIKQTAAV
T6 sequence (P24387 whole entry): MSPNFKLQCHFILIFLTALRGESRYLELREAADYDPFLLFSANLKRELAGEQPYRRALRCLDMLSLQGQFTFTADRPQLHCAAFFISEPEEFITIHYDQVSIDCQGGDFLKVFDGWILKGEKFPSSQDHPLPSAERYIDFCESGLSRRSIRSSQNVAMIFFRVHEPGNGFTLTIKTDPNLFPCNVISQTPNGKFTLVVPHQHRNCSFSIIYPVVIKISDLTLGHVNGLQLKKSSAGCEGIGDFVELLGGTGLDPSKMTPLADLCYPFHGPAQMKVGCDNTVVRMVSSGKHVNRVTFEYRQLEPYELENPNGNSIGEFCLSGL

[16] = molecular target: T6, Corticotropin-releasing factor receptor 2/Corticotropin-releasing factor-binding protein; assay: activators of CRF receptor 2 with binding protein – uHTS hits, confirmation (AID 602473); format: functional; settings: read-out: EC50_Mean
[17] = molecular target: Beta-galactosidase (Escherichia coli, UniProt Q8VNN2); assay: Dose response counterscreen for EBI2 assay utilizing the enzyme, b-galactosidase.; format: functional

Compound: O=c1oc2cc(O)ccc2c2oc3cc(O)ccc3c12 [COUMESTROL]
GI50 [1]: 26.2 µM (inactive)
GI50 [2]: 50 µM (inactive)
GI50 [3]: 27.4 µM (inactive)
IC50 [4]: > 66.6 µM (inactive)
IC50 [5]: 14.7 µM (active)
IC50 [6]: 32.3 µM (active)
AC50 [7]: 50.1 µM (inconclusive)

EC50 [8]: 92.5 µM (inactive)
EC50 [9]: 18.9 µM (inactive)
Compound: Cc1ccc2c(C)c(C(=O)Nc3c(C)n(C)n(-c4ccccc4)c3=O)oc2c1C

IC50 [10]: 6.09 µM (active)
Compound: O=C(NCc1ccccc1)C(C1CC1)n1c(=O)c(-c2ccco2)nc2ccccc21 (configuration not stated)

IC50 [11]: 35.9 µM (inactive)
IC50 [12]: 18.5 µM (active)
IC50 [13]: 25.4 µM (inactive)
IC50 [14]: 14.8 µM (active)
Compound: Cc1coc(NC(=O)CSc2nc(-c3ccncc3)cc(C(F)(F)F)c2C#N)n1

IC50 [15]: > 47.1 µM (inactive)
EC50 [16]: > 53 µM (inactive)
IC50 [17]: > 80 µM (inactive)
Compound: CSc1ccc(/C=C/C(=O)N2CCN(c3ccccn3)CC2)cc1
